Measured values as given in patent publication US10005767B2, “Compositions and methods for inhibition of the JAK pathway” (Rigel Pharmaceuticals, Inc., priority 2009, dated 2018).

System: human primary T-cells, IL-2 stimulated proliferation (JAK-1 and JAK-3 dependent; reported as JAK3 activity)
Assay: Human primary T-cell proliferation stimulated by IL-2 (Example 3)
Format: cell-based
Details: Homo sapiens, T-cell, tested under conditions described in Example 3 (IL-2 stimulated human primary T-cell proliferation); read-out: ability to inhibit JAK3 activity, IC50 range (Table V)
Procedure, shortened: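 Peripheral-blood human T-cells pre-activated via TCR/CD28, IL-2-starved overnight, then cultured 72 h at 37 °C with compound in Yssel's medium containing IL-2 (80 U/mL in cell suspension). Proliferation read as viable-cell ATP by CellTiter-Glo luminescence; reduction versus control taken as JAK pathway inhibition.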

Structure (SMILES)	IC50
COc1ccc(Nc2ncc(C)c(Nc3ccc4oc(=O)[nH]c4c3)n2)cc1C(=O)N1CCN(C)CC1 [Compound I-263, 5-(2-(4-methoxy-3-(4-methylpiperazine-1-carbonyl)phenylamino)-5-methylpyrimidin-4-ylamino)benzo[d]oxazol-2(3H)-one]	< 500 nM
Cc1cnc(Nc2ccc(C(=O)NC3CCC3)cc2)nc1Nc1ccc2oc(=O)n(COP(=O)(O)O)c2c1 [Compound I-150, (5-(2-(4-(cyclobutylcarbamoyl)phenylamino)-5-methylpyrimidin-4-ylamino)-2-oxobenzo[d]oxazol-3(2H)-yl)methyl dihydrogen phosphate]	< 500 nM
Cc1cnc(Nc2ccc(N3CCO[C@H](C)C3)nc2)nc1Nc1ccc2oc(=O)[nH]c2c1 [II-135, 5-methyl-N2-[2-(2R-methylmorpholino)pyridin-5-yl]-N4-(2-oxo-2,3-dihydro-1,3-benzoxazol-5-yl)-2,4-pyrimidinediamine]	< 500 nM
Cc1cnc(Nc2cc(O)c3ccccc3c2)nc1Nc1ccc2oc(=O)[nH]c2c1 [IV-56, 5-[2-(4-Hydroxy-naphthalen-2-ylamino)-5-methyl-pyrimidin-4-ylamino]-3H-benzooxazol-2-one]	5000 to 10000 nM
Cc1cnc(Nc2ccc(N[C@H]3CCCNC3)nc2)nc1Nc1ccc2oc(=O)[nH]c2c1 [II-104, (S)-5-(5-methyl-2-(6-(piperidin-3-ylamino)pyridin-3-ylamino)pyrimidin-4-ylamino)benzo[d]oxazol-2(3H)-one]	< 500 nM
Cc1cnc(Nc2ccc(C(N)=O)cc2)nc1Nc1ccc2oc(=O)n(COP(=O)(OC(C)(C)C)OC(C)(C)C)c2c1 [Compound I-146, di-tert-butyl (5-(2-(4-carbamoylphenylamino)-5-methylpyrimidin-4-ylamino)-2-oxobenzo[d]oxazol-3(2H)-yl)methyl phosphate]	500 to 5000 nM
Cc1cnc(Nc2cnc(C3NCC4CCCCC43)c(Cl)c2)nc1Nc1ccc2oc(=O)[nH]c2c1 (centres unmarked) [II-122, N2-[3-chloro-2-(octahydroisoindol-1-yl)pyridin-5-yl]-5-methyl-N4-(2-oxo-2,3-dihydro-1,3-benzoxazol-5-yl)-2,4-pyrimidinediamine]	< 500 nM
Cc1cnc(Nc2ccc(F)cc2F)nc1Nc1ccc2oc(=O)[nH]c2c1 [Compound I-456, 5-[2-(2,4-Difluoro-phenylamino)-5-methyl-pyrimidin-4-ylamino]-3H-benzooxazol-2-one]	< 500 nM
Cc1cnc(Nc2ccc(F)c(S(C)(=O)=O)c2)nc1Nc1cc(C)c2oc(=O)[nH]c2c1 [Compound I-245, 5-(2-(4-fluoro-3-(methylsulfonyl)phenylamino)-5-methylpyrimidin-4-ylamino)-7-methylbenzo[d]oxazol-2(3H)-one]	< 500 nM
Cc1ccc(Nc2ncc(C)c(Nc3ccc4oc(=O)[nH]c4c3)n2)cc1S(C)(=O)=O [Compound I-239, 5-(5-methyl-2-(4-methyl-3-(methylsulfonyl)phenylamino)pyrimidin-4-ylamino)benzo[d]oxazol-2(3H)-one]	< 500 nM
Cc1cnc(Nc2cccc(C=O)c2)nc1Nc1ccc2oc(=O)[nH]c2c1 [Compound I-1, N4-(benzo[d]oxazol-2(3H)-on-5-yl)-N2-(3-formylphenyl)-5-methylpyrimidine-2,4-diamine]	500 to 5000 nM
Cc1cnc(Nc2cnc(N3CC4CCC(C3)N4C)c(C)c2)nc1Nc1ccc2oc(=O)[nH]c2c1 [II-64, 5-(5-methyl-2-(5-methyl-6-(8-methyl-3,8-diaza-bicyclo[3.2.1]octan-3-yl)pyridin-3-ylamino)pyrimidin-4-ylamino)benzo[d]oxazol-2(3H)-one]	< 500 nM
Cc1cnc(Nc2cc(C(C)NC3CC3)cc(C(F)(F)F)c2)nc1Nc1ccc2oc(=O)[nH]c2c1 (centres unmarked) [Compound I-461, 5-(2-(3-(1-(cyclopropylamino)ethyl)-5-(trifluoromethyl)phenylamino)-5-methylpyrimidin-4-ylamino)benzo[d]oxazol-2(3H)-one]	< 500 nM
Cc1cnc(Nc2ccc(N3CCC(C)(C)CC3)nc2)nc1Nc1ccc2oc(=O)[nH]c2c1 [II-60, 5-(2-(6-(4,4-dimethylpiperidin-1-yl)pyridin-3-ylamino)-5-methylpyrimidin-4-ylamino)benzo[d]oxazol-2(3H)-one]	< 500 nM
Cc1cnc(Nc2ccc(N(C)[C@@H]3CCCNC3)nc2)nc1Nc1ccc2oc(=O)[nH]c2c1 [II-108, (R)-5-(5-methyl-2-(6-(methyl(piperidin-3-yl)amino)pyridin-3-ylamino)pyrimidin-4-ylamino)benzo[d]oxazol-2(3H)-one]	< 500 nM
COc1cc(CF)cc(Nc2ncc(C)c(Nc3ccc4oc(=O)[nH]c4c3)n2)c1 [Compound I-274, 5-(2-(3-(fluoromethyl)-5-methoxyphenylamino)-5-methylpyrimidin-4-ylamino)benzo[d]oxazol-2(3H)-one]	< 500 nM

Same assay, conditions: tested under conditions described in Example 3 (IL-2 stimulated human primary T-cell proliferation); read-out: ability to inhibit JAK3 activity, IC50 range (Table V)

Structure (SMILES)	IC50
Cn1c(=O)oc2ccc(Nc3nc(Nc4ccc(S(C)(=O)=O)cc4)ncc3F)cc21 [Compound I-78, N2-((4-methylsulfonyl)phenyl)-N4-(3-methyl-2-oxo-2,3-dihydrobenzo[d]oxazol-5-yl)-5-fluoropyrimidine-2,4-diamine]	500 to 5000 nM
Cc1cnc(Nc2cc(C)c(OC(C)(C)C(N)=O)c(C)c2)nc1Nc1ccc2oc(=O)[nH]c2c1 [Compound I-389, N2-[4-(1-aminocarbonyl-1-methyl)ethoxy-3,5-dimethyl]phenyl-5-methyl-N4-(2-oxo-2,3-dihydro-1,3-benzoxazol-5-yl)-2,4-pyrimidinediamine]	< 500 nM
Cc1cnc(Nc2cccc(N3CCOCC3)c2)nc1Nc1ccc2oc(=O)[nH]c2c1 [Compound I-46, N4-(benzo[d]oxazol-2(3H)-on-5-yl)-N2-((3-morpholinyl)phenyl)-5-methylpyrimidine-2,4-diamine]	< 500 nM
Cc1cnc(Nc2ccc3c(c2)CN(C(=O)OC(C)(C)C)C3)nc1Nc1ccc2oc(=O)[nH]c2c1 [III-3, N4-(benzo[d]oxazol-2(3H)-on-5-yl)-N2-(2-tert-butoxoxycarbonylisoindolin-5-yl)-5-methylpyrimidine-2,4-diamine]	< 500 nM
CCNC(=O)N1CCN(c2ccc(Nc3ncc(C)c(Nc4ccc5oc(=O)[nH]c5c4)n3)cc2)CC1 [Compound I-333, N2-[4-(4-ethylaminocarbonyl)piperazino]phenyl-5-methyl-N4-(2-oxo-2,3-dihydro-1,3-benzoxazol-5-yl)-2,4-pyrimidinediamine]	< 500 nM
Cc1cnc(Nc2cccc(OCC(=O)N3CCOCC3)c2)nc1Nc1ccc2oc(=O)[nH]c2c1 [Compound I-320, 5-methyl-N2-[3-(morpholinocarbonylmethoxy)]phenyl-N4-(2-oxo-2,3-dihydro-1,3-benzoxazol-5-yl)-2,4-pyrimidinediamine]	< 500 nM
Cc1cnc(Nc2ccc(N3CCN4CCC[C@@H]4C3)nc2)nc1Nc1ccc2oc(=O)[nH]c2c1 [II-132, N2-[2-(R-1,4-diazabicylco[4.3.0]nonan-4-yl)pyridin-5-yl]-5-methyl-N4-(2-oxo-2,3-dihydro-1,3-benzoxazol-5-yl)-2,4-pyrimidinediamine]	< 500 nM
Cc1cnc(Nc2cc(C#N)cc(OC(F)F)c2)nc1Nc1ccc2oc(=O)[nH]c2c1 [Compound I-478, N2-(3-cyano-5-difluoromethoxy)phenyl-5-methyl-N4-(2-oxo-2,3-dihydro-1,3-benzoxazol-5-yl)-2,4-pyrimidinediamine]	< 500 nM
CNC(=O)c1cc(Nc2ncc(C)c(Nc3ccc4oc(=O)[nH]c4c3)n2)ccc1N1CCN(C)CC1 [Compound I-323, 5-methyl-N2-[3-methylaminocarbonyl-4-(4-methylpiperazino)]phenyl-N4-(2-oxo-2,3-dihydro-1,3-benzoxazol-5-yl)-2,4-pyrimidinediamine]	< 500 nM
Cc1cnc(Nc2ccc(OCCO)nc2)nc1Nc1ccc2oc(=O)[nH]c2c1 [II-142, N2-[2-(2-hydroxy)ethoxypyridin-5-yl]-5-methyl-N4-(2-oxo-2,3-dihydro-1,3-benzoxazol-5-yl)-2,4-pyrimidinediamine]	< 500 nM
Cc1cnc(Nc2ccc(C)c(C)c2F)nc1Nc1ccc2oc(=O)[nH]c2c1 [Compound I-493, N2-(3,4-dimethyl-2-fluoro)phenyl-5-methyl-N4-(2-oxo-2,3-dihydro-1,3-benzoxazol-5-yl)-2,4-pyrimidinediamine]	< 500 nM
Cc1cnc(Nc2ccc(N3CCC(F)(F)CC3)c(C(F)(F)F)c2)nc1Nc1ccc2oc(=O)[nH]c2c1 [Compound I-276, N2-[4-(4,4-difluoropiperidinyl)-3-trifluoromethyl]phenyl-5-methyl-N4-(2-oxo-2,3-dihydro-1,3-benzoxazol-5-yl)-2,4-pyrimidinediamine]	< 500 nM
Cc1cnc(Nc2ccc(S(N)(=O)=O)cc2)nc1Nc1ccc2oc(=O)n(C)c2c1 [Compound I-68, N2-((4-aminosulfonyl)phenyl)-N4-(3-methyl-2-oxo-2,3-dihydrobenzo[d]oxazol-5-yl)-5-methylpyrimidine-2,4-diamine]	< 500 nM
COc1cc(Nc2ncc(C)c(Nc3ccc4oc(=O)[nH]c4c3)n2)cc(OC)c1OC [Compound I-119, N4-(benzo[d]oxazol-2(3H)-on-5-yl)-N2-(3,4,5-trimethoxy)phenyl-5-methylpyrimidine-2,4-diamine]	< 500 nM
Cn1c(=O)n(C)c2cc(Nc3nc(Nc4cccc(S(N)(=O)=O)c4)ncc3F)ccc21 [Compound I-39, N4-(1,3-dimethylbenzimidazolin-2-on-5-yl)-N2-((3-aminosulfonyl)phenyl)-5-fluoropyrimidine-2,4-diamine]	< 500 nM
COc1ccc(Nc2ncc(C)c(Nc3ccc4oc(=O)[nH]c4c3)n2)cc1C#N [Compound I-373, N2-(3-cyano-4-methoxy)phenyl-5-methyl-N4-(2-oxo-2,3-dihydro-1,3-benzoxazol-5-yl)-2,4-pyrimidinediamine]	< 500 nM
